Tests used:
[1] = target: T1, human GIVA cPLA2 (Homo sapiens, UniProt P47712); assay: GIVA cPLA2 specific mixed micelle assay; type: biochemical; details: mean and standard error; for Average percent inhibition GIVA cPLA2: 0.091 mole fraction, n = 3
T1 sequence (P47712 1-749): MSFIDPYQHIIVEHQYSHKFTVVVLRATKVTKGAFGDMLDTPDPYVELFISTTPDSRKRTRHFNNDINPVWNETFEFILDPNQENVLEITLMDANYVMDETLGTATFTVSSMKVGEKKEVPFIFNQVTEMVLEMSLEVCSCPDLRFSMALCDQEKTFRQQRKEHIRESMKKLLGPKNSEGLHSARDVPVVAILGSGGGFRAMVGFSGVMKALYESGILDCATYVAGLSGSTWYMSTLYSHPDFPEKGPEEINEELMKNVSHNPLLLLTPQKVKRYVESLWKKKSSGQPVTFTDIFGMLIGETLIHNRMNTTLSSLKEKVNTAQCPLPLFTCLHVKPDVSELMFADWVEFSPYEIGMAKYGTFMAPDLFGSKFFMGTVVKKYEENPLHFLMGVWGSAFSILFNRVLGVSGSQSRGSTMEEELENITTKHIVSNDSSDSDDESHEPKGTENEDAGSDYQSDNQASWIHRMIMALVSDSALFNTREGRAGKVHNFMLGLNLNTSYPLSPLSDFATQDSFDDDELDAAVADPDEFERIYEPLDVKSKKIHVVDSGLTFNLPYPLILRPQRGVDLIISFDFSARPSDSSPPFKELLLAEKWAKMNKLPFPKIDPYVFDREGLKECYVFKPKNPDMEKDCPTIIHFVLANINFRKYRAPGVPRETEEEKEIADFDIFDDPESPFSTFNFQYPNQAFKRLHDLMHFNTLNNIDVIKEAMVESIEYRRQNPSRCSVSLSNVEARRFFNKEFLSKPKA
Description: (§1) Inhibition of phospholipase A2 by perfluoroketone compounds. […] (2002) J. Med. Chem. 45: 2891-2893; Kokotos, G. et al. (2004). J. Med. Chem. 47: 3615-3628). The standard GVIA iPLA2 activity assay utilizes DPPC/Triton™ X-100 mixed micelles at a ratio of 1:4 as previously described (Stephens D. et al. (2006). J. Med. Chem., 49: 2821-2828). GV sPLA2 activity was measured in an assay similar to the assays for GIVA cPLA2 and GVIA iPLA2.

[2] = tested on: EAE-induced SJL/J mice; assay: Clinical course of EAE in SJL/J mice treated with fluoroketone compounds; type: in vivo
[3] = target: T2, GV sPLA2 (Homo sapiens, UniProt P39877); assay: GV sPLA2 activity assay (release of [14C]-palmitic acid from mixed micelles); type: biochemical; details: mean and standard error; for Average percent inhibition GV sPLA2: 0.091 mole fraction, n = 3
T2 sequence (P39877 21-138): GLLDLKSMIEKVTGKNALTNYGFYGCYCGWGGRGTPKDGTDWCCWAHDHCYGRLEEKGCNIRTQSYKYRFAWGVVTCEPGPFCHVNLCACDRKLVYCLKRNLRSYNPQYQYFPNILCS
Description: as §1

[4] = target: T3, GVIA iPLA2 (Homo sapiens, UniProt O60733); assay: standard GVIA iPLA2 activity assay (DPPC/Triton X-100 mixed micelles); type: biochemical; details: mean and standard error; for Average percent inhibition GVIA iPLA2: 0.091 mole fraction, n = 3; for inhibition at 0.091 mole fraction: n = 3, read-out: Average percent inhibition GVIA iPLA2
T3 sequence (O60733 1-806): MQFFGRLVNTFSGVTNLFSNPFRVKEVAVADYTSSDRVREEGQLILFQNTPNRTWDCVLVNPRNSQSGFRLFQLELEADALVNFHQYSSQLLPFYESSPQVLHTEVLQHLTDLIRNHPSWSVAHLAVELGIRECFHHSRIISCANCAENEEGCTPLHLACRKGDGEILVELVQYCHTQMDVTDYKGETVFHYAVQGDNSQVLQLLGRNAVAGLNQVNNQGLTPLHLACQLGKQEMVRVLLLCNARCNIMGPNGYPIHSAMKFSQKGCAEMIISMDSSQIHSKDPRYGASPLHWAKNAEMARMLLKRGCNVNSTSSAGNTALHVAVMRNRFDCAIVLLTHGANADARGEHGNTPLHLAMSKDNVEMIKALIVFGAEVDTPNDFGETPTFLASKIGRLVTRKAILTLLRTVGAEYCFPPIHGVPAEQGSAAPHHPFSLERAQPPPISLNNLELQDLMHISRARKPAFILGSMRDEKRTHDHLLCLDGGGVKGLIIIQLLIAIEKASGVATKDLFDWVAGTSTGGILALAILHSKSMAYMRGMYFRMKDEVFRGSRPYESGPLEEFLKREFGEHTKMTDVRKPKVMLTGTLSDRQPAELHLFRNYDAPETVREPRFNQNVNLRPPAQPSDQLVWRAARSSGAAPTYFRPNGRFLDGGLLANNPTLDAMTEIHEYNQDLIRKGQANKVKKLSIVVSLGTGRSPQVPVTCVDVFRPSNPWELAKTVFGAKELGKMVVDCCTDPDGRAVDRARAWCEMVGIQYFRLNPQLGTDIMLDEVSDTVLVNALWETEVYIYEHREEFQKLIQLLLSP
Description: as §1

Row | Structure (SMILES) | Average percent inhibition GIVA cPLA2 [1] | severity and progression of the disease (EAE) ([2]; delayed treatment from day 11 after immunization, 2 weeks, i.p., vs vehicle) | maximum clinical disability score ([2]; treatment before onset of symptoms, daily for 3 weeks from day 6, course until day 40, 5-point scale) | Average percent inhibition GV sPLA2 [3] | Average percent inhibition GVIA iPLA2 [4] | inhibition at 0.091 mole fraction [4] | melting point | inhibition at 0.091 mole fraction ([1]; n = 3, read-out: Average percent inhibition GIVA cPLA2) | inhibition at 0.091 mole fraction ([3]; n = 3, read-out: Average percent inhibition GV sPLA2)
1 | CCCCCCOc1ccc(CCCCC(=O)C(F)(F)F)cc1 [FKGK2, 1,1,1-Trifluoro-6-(4hexyloxy-phenyl)-2-hexanone] | 92 ± 3% | did not show any significant improvement | around 0.5 grade | 86 ± 2% | 91 ± 4% |  |  |  | 
2 | CCCCCCCCCCOc1ccc(CCCCC(=O)C(F)(F)F)cc1 [FKGK4, 1,1,1-Trifluoro-6-(4-decyloxy-phenyl)-2-hexanone] | 95 ± 2% |  |  | 84 ± 7% |  | 94 ± 8% |  |  | 
3 | CCCCCCOc1ccc(CCC(=O)C(F)(F)F)cc1 [FKGK1, 1,1,1-Trifluoro-4-(4-hexyloxy-phenyl)-2-butanone] | 91 ± 2% |  |  | 82 ± 8% | 85 ± 4% |  |  |  | 
4 | O=C(CCCCCc1ccccc1)C(F)(F)C(F)(F)F [FKGK12, 1,1,1,2,2-Pentafluoro-8-phenyl-3-octanone] | 56 ± 4% |  |  | 46 ± 8% | 98 ± 5% |  |  |  | 
5 | CCCCCCOc1ccc(CCC(=O)C(F)(F)C(F)(F)F)cc1 [FKGK14, 1,1,1,2,2-Pentafluoro-5-(4-hexyloxy-phenyl)-3-pentanone] | 73 ± 4% |  |  | 86 ± 4% | 95 ± 5% |  |  |  | 
6 | O=C(CCc1ccc(OCc2ccccc2)cc1)C(F)(F)F [FKGK5, 1,1,1-Trifluoro-4-(4-benzyloxy-phenyl)-2-butanone] | 88 ± 1% |  |  | 49 ± 12% | 71 ± 14% |  | 71 to 72 °C |  | 
7 | CCCCCCCCCCOc1ccc(CCC(=O)C(F)(F)F)cc1 [FKGK3, 1,1,1-Trifluoro-4-(4-decyloxy-phenyl)-2-butanone] | 96 ± 2% |  |  | 80 ± 6% | 94 ± 8% |  |  |  | 
8 | O=C(C(F)(F)F)C(F)(F)CCCc1ccccc1 [FKGK7, 1,1,1,3,3-Pentafluoro-6-phenyl-hexan-2-one] |  |  |  |  |  | 49 ± 12% |  | 27 ± 3% | 59 ± 12%
9 | CCCCCCCCCCCCCCC(F)C(=O)C(F)(F)F (stereo not drawn) [FKGK8, 1,1,1,3-Tetrafluoro-2-heptadecanone] | 94 ± 2% |  |  | 86 ± 10% | 93 ± 4% |  |  |  | 
10 | O=C(CCCCCCc1ccccc1)C(F)(F)C(F)(F)F [FKGK13, 1,1,1,2,2-Pentafluoro-9-phenyl-3-nonanone] | 65 ± 12% |  |  | 75 ± 10% | 98 ± 4% |  |  |  | 
